Like-named read-outs stand apart in the source and are kept apart here.
What was measured:
CACO-2 CRC cells = experiment: cells; settings: for IC50: Homo sapiens
Procedure: (§1) Cell Culture Conditions. The cell lines were obtained from the American Type Culture Collection (ATCC). PANC-1 and Caco-2 cell lines were maintained in DMEM medium (Gibco); HT-29, HCT-116 and RKO cells were maintained in McCoy's 5A medium (Gibco); and DU-145 and H1299 cells were maintained in RPMI 1640 medium (Gibco), supplemented with 10% fetal bovine serum (FBS; Gibco) and 1% antibiotics (10.00 units/mL penicillin and 10.00 mg/mL streptomycin; Gibco). Cells were preserved in tissue culture flasks at 37° C. and 5% CO2. Culture medium was replaced every three days.
(§2) Cell Viability Assay. The effect of each compound on cell viability was tested using the MTT assay (81). Briefly, 9000 cells/well were grown in 96-well plates for 12 h. Then these cells were incubated with either DMSO (control) or nine different concentration between 0.01-50 μM of the test compounds for 24, 48, and 72 h. Three hours before the termination point, 20 μL of MTT were added to measure cellular viability. The resultant formazan crystals were dissolved in 50 μL of DMSO, and absorbance was measured at 570 nm and 630 nm wavelengths. IC50, GI50, TGI and LC50 values were calculated using OriginPro 8.5.1.

RKO CRC cells = experiment: cells; settings: Homo sapiens
Procedure: as §1, §2

HCT-116 CRC cells = experiment: MTT cell viability assay, HCT-116; format: cell-based, human; settings: Homo sapiens
Procedure: as §1, §2

HT-29 (CRC) = experiment: MTT cell viability assay, HT-29; settings: Homo sapiens; for viability at 5 µM / viability at 25 µM / viability at 50 µM: read-out: cell viability
Procedure: as §1, §2
(§3) Evaluation of the antiproliferative activities of the novel molecules. […] These four cell lines were treated with each compound at three concentrations (5, 25 and 50 μM) for 48 h.

[1] = test system: PANC-1 (pancreatic carcinoma); experiment: MTT cell viability assay, Panc-1; settings: Homo sapiens, PANC-1, 48 h, read-out: cell viability
Procedure: as §1, §2, §3

[2] = test system: DU-145 (prostate carcinoma); experiment: MTT cell viability assay, DU-145; settings: Homo sapiens, DU-145, 48 h, read-out: cell viability
Procedure: as §1, §2, §3

H1299 (lung carcinoma) = experiment: MTT cell viability assay, H1299; settings: Homo sapiens, NCI-H1299, 48 h, read-out: cell viability
Procedure: as §1, §2, §3

SMILES | IC50 (CACO-2 CRC cells; Caco-2, 24 h) [µM] | IC50 (CACO-2 CRC cells; Caco-2, 48 h) [µM] | IC50 (CACO-2 CRC cells; Caco-2, 72 h) [µM] | IC50 (RKO CRC cells; 24 h) [µM] | IC50 (RKO CRC cells; 48 h) [µM] | IC50 (RKO CRC cells; 72 h) [µM] | IC50 (HT-29 (CRC); HT-29, 24 h) [µM] | IC50 (HT-29 (CRC); HT-29, 48 h) [µM] | IC50 (HT-29 (CRC); HT-29, 72 h) [µM] | viability at 5 µM [1] [%] | viability at 25 µM [1] [%] | viability at 50 µM [1] [%] | viability at 5 µM [2] [%] | viability at 25 µM [2] [%] | viability at 50 µM [2] [%] | viability at 5 µM (HT-29 (CRC); HT-29, 48 h) [%] | viability at 25 µM (HT-29 (CRC); HT-29, 48 h) [%] | viability at 50 µM (HT-29 (CRC); HT-29, 48 h) [%] | viability at 5 µM (H1299 (lung carcinoma)) [%] | viability at 25 µM (H1299 (lung carcinoma)) [%] | also measured
CC[Se]C(=O)c1ccccc1OC(C)=O [Compound 1b, 2-((ethylselanyl)carbonyl)phenyl acetate] | > 50 | > 50 | > 50 | > 50 | > 50 | > 50 | > 50 | 4.2 ± 0.4 | 4.2 ± 0.9 |  |  |  |  |  |  |  |  |  |  |  | effect on CACO-2 viability (CACO-2 CRC cells): no effect; IC50 (HCT-116 CRC cells; HCT-116, 24 h, read-out: IC50): > 50 µM; IC50 (HCT-116 CRC cells; HCT-116, 48 h, read-out: IC50): 13.2 ± 2.6 µM; IC50 (HCT-116 CRC cells; HCT-116, 72 h, read-out: IC50): 6.8 ± 4.2 µM
CC(=O)Oc1ccccc1C(=O)[Se]Cc1ccccc1 [Compound 1c, 2-((benzylselanyl)carbonyl)phenyl acetate] | > 50 | > 50 | 11.8 ± 5.9 | > 50 | 10.4 ± 0.1 | 5 ± 0.1 | > 50 | 4.8 ± 0.2 | 4.8 ± 0.1 |  |  |  |  |  |  |  |  |  |  |  | IC50 (HCT-116 CRC cells; HCT-116, 24 h): > 50 µM; IC50 (HCT-116 CRC cells; HCT-116, 48 h): 8 ± 2.1 µM; IC50 (HCT-116 CRC cells; HCT-116, 72 h): 8.2 ± 2.2 µM
C[Se]C(=O)c1cc(-c2ccc(F)cc2F)ccc1O [Compound 2a, Se-methyl 2′,4′-difluoro-4-hydroxy-[1,1′-biphenyl]-3-carboselenoate] |  |  |  |  |  |  |  |  |  | 53.5 ± 9.7 | 38.5 ± 8.1 | 39.1 ± 11.1 | 53.9 ± 14.1 | 40.7 ± 8.3 | 39.5 ± 2.7 | 46.6 ± 11.9 | 23.5 ± 7.2 | 28.4 ± 2.7 | 96.8 ± 19.8 | 80 ± 10.7 | viability at 50 µM (H1299 (lung carcinoma)): 79.9 ± 9%
COc1ccc2cc([C@H](C)C(=O)[Se]C)ccc2c1 [Compound 3a, Se-methyl (S)-2-(6-methoxynaphthalen-2-yl)propaneselenoate] |  |  |  |  |  |  |  |  |  | 46.7 ± 9.7 | 34.4 ± 6.3 | 30.5 ± 6 | 56.2 ± 18.4 | 35 ± 16.1 | 31.4 ± 23.6 | 52.2 ± 30.9 | 41.8 ± 26.4 | 46.4 ± 24.7 | 48.3 ± 5.4 | 42.4 ± 2.7 | viability at 50 µM (H1299 (lung carcinoma)): 34.3 ± 1.3%
C[Se]C(=O)c1ccccc1Nc1cccc(C)c1C [Compound 4a, Se-methyl 2-((2,3-dimethylphenyl)amino)benzoselenoate] |  |  |  |  |  |  |  |  |  | 47.5 ± 5.9 | 26.3 ± 3.9 | 22.6 ± 3 | 58 ± 14.1 | 29.7 ± 10.9 | 32 ± 6.5 | 41.6 ± 6.4 | 16.6 ± 4.7 | 22.6 ± 0.7 | 98.7 ± 0.4 | 99.4 ± 0.3 | viability at 50 µM (H1299 (lung carcinoma)): 100%
CC[Se]C(=O)Cc1c(C)n(C(=O)c2ccc(Cl)cc2)c2ccc(OC)cc12 [Compound 5b, Se-ethyl 2-(1-(4-chlorobenzoyl)-5-methoxy-2-methyl-1H-indol-3-yl)ethane-selenoate] | > 50 | > 50 | > 50 | > 50 | 30.8 ± 3.5 | 33.3 ± 16.9 | > 50 | 4.9 ± 0.3 | 4.9 ± 0.1 |  |  |  |  |  |  |  |  |  |  |  | effect on CACO-2 viability (CACO-2 CRC cells): no effect; IC50 (HCT-116 CRC cells; HCT-116, 24 h, read-out: IC50): > 50 µM; IC50 (HCT-116 CRC cells; HCT-116, 48 h, read-out: IC50): 6.3 ± 1.6 µM; IC50 (HCT-116 CRC cells; HCT-116, 72 h, read-out: IC50): 8.2 ± 1.7 µM
COc1ccc2c(c1)c(CC(=O)[Se]Cc1ccccc1)c(C)n2C(=O)c1ccc(Cl)cc1 [Compound 5c, Se-benzyl 2-(1-(4-chlorobenzoyl)-5-methoxy-2-methyl-1H-indol-3-yl)ethane-selenoate] | > 50 | > 50 | > 50 | > 50 | 26.2 ± 4.6 | 11.5 ± 0.9 | > 50 | 4.2 ± 0.5 | 4 ± 1 |  |  |  |  |  |  |  |  |  |  |  | IC50 (HCT-116 CRC cells; HCT-116, 24 h): > 50 µM; IC50 (HCT-116 CRC cells; HCT-116, 48 h): 14 ± 6.6 µM; IC50 (HCT-116 CRC cells; HCT-116, 72 h): 5.5 ± 1.2 µM
CC[Se]C(=O)CC1=C(C)/C(=C/c2ccc([S+](C)[O-])cc2)c2ccc(F)cc21 (stereo not drawn) [Compound 6b, Se-ethyl (Z)-2-(5-fluoro-2-methyl-1-(4-(methylsulfinyl)benzylidene)-1H-inden-3-yl)ethaneselenoate] | > 50 | > 50 | > 50 | > 50 | 41.8 ± 13.8 | 12.4 ± 0.5 | 10.9 ± 1.4 | 4.9 ± 0.2 | 5 ± 0.1 |  |  |  |  |  |  |  |  |  |  |  | effect on CACO-2 viability (CACO-2 CRC cells): no effect; IC50 (HCT-116 CRC cells; HCT-116, 24 h, read-out: IC50): > 50 µM; IC50 (HCT-116 CRC cells; HCT-116, 48 h, read-out: IC50): 6.2 ± 0.9 µM; IC50 (HCT-116 CRC cells; HCT-116, 72 h, read-out: IC50): 7.2 ± 1 µM
CC1=C(CC(=O)[Se]Cc2ccccc2)c2cc(F)ccc2/C1=C\c1ccc([S+](C)[O-])cc1 (stereo not drawn) [Compound 6c, Se-benzyl (Z)-2-(5-fluoro-2-methyl-1-(4-(methylsulfinyl)benzylidene)-1H-inden-3-yl)ethaneselenoate] | > 50 | 11.4 ± 1.6 | 14.2 ± 3.9 | > 50 | > 50 | 35.8 ± 5.9 | > 50 | 5.1 ± 0.1 | 5.2 ± 0.2 |  |  |  |  |  |  |  |  |  |  |  | IC50 (HCT-116 CRC cells; HCT-116, 24 h): > 50 µM; IC50 (HCT-116 CRC cells; HCT-116, 48 h): 7.8 ± 1.8 µM; IC50 (HCT-116 CRC cells; HCT-116, 72 h): 7 ± 0.8 µM
O=C(O)c1cc(-c2ccc(F)cc2F)ccc1O [Dfl, diflunisal, reference compound] |  |  |  |  |  |  |  |  |  | 77.9 ± 5.4 | 75.5 ± 6.9 | 68.5 ± 9.3 | 71 ± 6.9 | 71.5 ± 9.1 | 78.9 ± 6.4 | 93.2 ± 5.7 | 82.7 ± 9.8 | 74.7 ± 2 | 85.2 ± 3.6 | 94.3 ± 3.9 | viability at 50 µM (H1299 (lung carcinoma)): 88.7 ± 7.8%
Cc1cccc(Nc2ccccc2C(=O)O)c1C [Mf, mefenamic acid, reference compound] |  |  |  |  |  |  |  |  |  | 72.4 ± 5.6 | 61.9 ± 10.9 | 65.9 ± 5.1 | 100 | 100 | 100 | 91.9 ± 4.9 | 75.7 ± 4.1 | 64.9 ± 4.5 | 71.4 ± 15.5 | 44.9 ± 1.4 | viability at 50 µM (H1299 (lung carcinoma)): 39.4 ± 1.3%

— US20230219886A1, “NOVEL SELENO-NSAID ANALOGS AND USES THEREOF” (THE PENN STATE RESEARCH FOUNDATION, priority 2020, published 2023)
